In patent US20230149388A1, “OPIOID ANTAGONIST FORMULATIONS” (EMERGENT PRODUCT DEVELOPMENT GAITHERSBURG INC., priority 2020, published 2023):

Experiment: Pharmacokinetics of naloxone in Beagle dog, IM injection
Type: in vivo
Settings: both sexes, plasma, 0.3 mg/kg, Beagle dogs
Protocol: Pharmacokinetic (“PK”) data was collected from male and female Beagle dogs. Two (2) animals of each sex were assigned to three cohorts. […] Each injection was administered at a dose of 0.3 mg/kg.
Blood samples were collected from each animal following IV injections at target time points of pre-dose, and at 0.033, 0.083, 0.167, 0.333, 0.5, 1, 2, 4, and 8 hr. Blood samples were also collected from each animal following IM injections at target time points of pre dose, and at 0.083, 0.167, 0.25, 0.333, 0.5, 1, 2, 4, and 8 hr. Blood samples were collected into tubes containing dipotassium ethylenediaminetetraacetic acid (K2EDTA), processed to plasma, and stored until analyzed for naloxone.
PK analysis was performed using the target dose (mg/kg), sample collection time points (hr), and the measured concentrations of naloxone (ng/mL) in serum. If the actual sample collection time points were within 5% of target from 0 to 4 hours or within 15 minutes after 4 hours, then the target time points were used. […] The lower limit of quantitation (LLOQ) in plasma for this method is 0.2 ng/mL.
The method utilized protein precipitation in a 96-well format and LC-MS/MS analysis. The literature method was modified to utilize a larger sample size (50 μL) analysis.
The concentration-time profiles were evaluated using the non-compartmental analysis (NCA) module in the WinNonlin® software program (Version 8.2). […]

## C=CCN1CC[C@]23c4c5ccc(O)c4O[C@H]2C(=O)CC[C@@]3(O)[C@H]1C5 [naloxone]
Following IM injection, typical value
  Tmax: ~15 min
Following both IM and IV injection, read-out: group mean elimination half-life
  half-life: 28 to 35 min
